Measurements published in EP0165970B1, “HAIR GROWTH MODIFICATION” (KASZYNSKI, Edwin G., priority 1983, dated 1985).

How the values were obtained:
flank organ hair = test: Flank organ hair mass (hair re-growth) after topical application; type: in vivo; conditions: adult intact male hamsters
Excerpt: The absence of antagonism of synthemic androgen activity in the practice of our invention can be shown by the topical application of suitable compositions to one of the two flank organs of mature male hamsters. Dose-related decreases in androgen-dependent flank organ hair growth are obtained on the treated side but no statistically significant change occurs in the contralateral, vehicle-treated side. Similar studies have been conducted using female hamsters in which hair growth on the flank organs has been stimulated by the subcutaneous administration of a suitable androgen.
Summarized below are the results of several experiments comparing the efficacy of several compositions in reducing the flank organ hair mass in adult intact male hamsters. In each case, hamsters were treated for 15 days (Monday-Friday) during a 21-day interval. Flank organ hairs were depilated on the first day of treatment and redepilated on the sixth day of treatment. The mass of flank organ hair represents the re-growth during the final 14 days of the 21-day interval. The results for percent inhibition shown below are based upon comparisons between the hair mass values of hairs hervested from treated flank organs of experimental animals and those obtained from vehicle-treated control animals.

[1] = tested on: ornithine decarboxylase (ODC); test: Flank organ ornithine decarboxylase (ODC) activity, in vivo screen for topical antiandrogens; parameters: species or system hamsters; conditions: for ODC activity in flank organs: applied topically, single agents
Excerpt: A novel method for screening topical antiandrogens has been developed in which the fluctuations in flank organ activity of the enzyme ornithine decarboxylase (ODC) in response to androgens and antiandrogens is exploited to provide a rapid, in vivo screen for antiandrogens, based on a biochemical parameter specifically related to androgenic stimulation of pilosebaceous target tissues.
A further series of investigations on the androgenic regulation of ODC activity in hamster flank organs has been conducted to test topical antiandrogenic formulations consisting of combination regimens.

[2] = unilateral topical application, flank organs of intact (uncastrated) male hamsters
[3] = topical, androgen stimulated female hamsters
[4] = Experiment III, 500 micrograms per square centimeter

`C=CC[C@]1(O)CC[C@H]2[C@@H]3CCC4=CC(=O)CC[C@]4(C)[C@H]3CC[C@@]21C` [17-α-allyltestosterone] was tested, and the “% Inhibition” value (flank organ hair; Experiment IV, 5 micrograms per square centimeter) was 0%, the “% Inhibition” value (flank organ hair; Experiment IV, 20 micrograms per square centimeter) was 29% and the “% Inhibition” value (flank organ hair; Experiment IV, 50 micrograms per square centimeter) was 50%. For the same molecule, the “% Inhibition” value (flank organ hair; Experiment IV, 100 micrograms per square centimeter) was 50%, the “ODC activity in flank organs” value [1] was “inhibit ODC activity” and the ODC activity [1, 2] was “selectively decreased ODC activity on treated but not untreated flank organs”.

In the case of `CC(=O)O[C@]1(C(C)=O)CC[C@H]2[C@@H]3C=C(Cl)C4=CC(=O)[C@@H]5C[C@@H]5[C@]4(C)[C@H]3CC[C@@]21C` [Cyproterone acetate], the “% Inhibition” value (flank organ hair; Experiment I, 500 micrograms per square centimeter) is reported as 26%, the “% Inhibition” value (flank organ hair; Experiment II, 50 micrograms per square centimeter) is reported as 23% and the “% Inhibition” value (flank organ hair; Experiment II, 500 micrograms per square centimeter) is reported as 38%. For the same molecule, the “ODC activity in flank organs” value [1] was “inhibit ODC activity” and the ODC activity [1, 3] was “inhibited ODC activity”.

`CC(=O)[C@H]1CC[C@H]2[C@@H]3CCC4=CC(=O)CC[C@]4(C)[C@H]3CC[C@]12C` [Progesterone] was tested, and the “% Inhibition” value (flank organ hair; Experiment I, 15 days treatment in 21-day interval, 1000 micrograms per square centimeter) was 30%, the “% Inhibition” value (flank organ hair; Experiment III, 1000 micrograms per square centimeter) was 57% and the “% Inhibition” value (flank organ hair; Experiment IV, 1000 micrograms per square centimeter) was 48%. The “ODC activity in flank organs” value [1] was “inhibit ODC activity” and the ODC activity [1, 3] was “inhibited ODC activity”.

For `CC(=O)S[C@@H]1CC2=CC(=O)CC[C@]2(C)[C@H]2CC[C@@]3(C)[C@@H](CC[C@@]34CCC(=O)O4)[C@H]12` [Spironolactone], the “% Inhibition” value (flank organ hair; [4]) was 41%.

With `CCC[C@]1(O)CC[C@H]2[C@@H]3CCC4=CC(=O)CC[C@]4(C)[C@H]3CC[C@@]21C` [17-α-Propyltestosterone] the “% Inhibition” value (flank organ hair; Experiment I, 6 micrograms per square centimeter) was 26%, the “ODC activity in flank organs” value [1] was “inhibit ODC activity” and the ODC activity [1, 2] was “selectively decreased ODC activity on treated but not untreated flank organs”.

`CC(=O)O[C@]1(C(C)=O)CC[C@H]2[C@@H]3C=C(Cl)C4=CC(=O)CC[C@]4(C)[C@H]3CC[C@@]21C` [Chlormadione acetate] was tested, and the “% Inhibition” value (flank organ hair; [4]) was 45% and the “ODC activity in flank organs” value [1] was “inhibit ODC activity”.

In the case of `C[C@]12CC[C@H]3[C@@H](CCC4=CC(=O)CC[C@@]43C)[C@@H]1CC[C@@H]2C(=O)O` [4-androstene-3-one-17B- Carboxylic acid], the “% Inhibition” value (flank organ hair; Experiment II, 400 micrograms per square centimeter) is reported as 29%.
